Source: patent US8952024B2, “Herbicidal pyrimidone derivatives” (E I du Pont de Nemours and Company, priority 2009, dated 2015)

Columns and labels:
Type in all cases: in vivo
rice (Oryza sativa) = assay: Test B flooded paddy test; conditions: for Plant response rating, Flood, Rice: 250 g ai/ha, flooded paddy test, visual rating on 0 to 100 scale (0 no effect, 100 complete control) after 13 to 15 days; for Plant response rating, Rice: Flood (flooded paddy test), 13 to 15 days; for Rice plant response rating: Flood, scale 0 to 100 (0 no effect, 100 complete control)
Procedure, shortened: (§1)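 Post-flood paddy application: compounds are introduced into water 3 cm deep over the soil, reaching plants at the 2-leaf stage. The water level is maintained, and after 13–15 days under greenhouse conditions, response is judged by eye relative to controls, where 100 means complete control.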

[1] = test system: umbrella sedge (Cyperus difformis); assay: Test B flooded paddy test; conditions: for Plant response rating, Flood, Sedge, Umbrella: 250 g ai/ha, flooded paddy test, visual rating on 0 to 100 scale (0 no effect, 100 complete control) after 13 to 15 days; for Plant response rating, Sedge, Umbrella: Flood (flooded paddy test), 13 to 15 days; for Sedge, Umbrella plant response rating: Flood, scale 0 to 100 (0 no effect, 100 complete control)
Procedure, shortened: as §1

[2] = test system: ducksalad (Heteranthera limosa); assay: Test B flooded paddy test; conditions: for Plant response rating, Flood, Ducksalad: 250 g ai/ha, flooded paddy test, visual rating on 0 to 100 scale (0 no effect, 100 complete control) after 13 to 15 days; for Plant response rating, Ducksalad: Flood (flooded paddy test), 13 to 15 days; for Ducksalad plant response rating: Flood, scale 0 to 100 (0 no effect, 100 complete control)
Procedure, shortened: as §1

[3] = test system: barnyardgrass (Echinochloa crus-galli); assay: Test B flooded paddy test; conditions: for Plant response rating, Flood, Barnyardgrass: 250 g ai/ha, flooded paddy test, visual rating on 0 to 100 scale (0 no effect, 100 complete control) after 13 to 15 days; for Plant response rating, Barnyardgrass: Flood (flooded paddy test), 13 to 15 days; for Barnyardgrass plant response rating: Flood, scale 0 to 100 (0 no effect, 100 complete control)
Procedure, shortened: as §1

[4] = test system: winter barley (Hordeum vulgare); assay: Test B postemergence plant response
Procedure, shortened: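 Visual ratings from 0 (no effect) to 100 (complete control), made against controls 13–15 days after treatment, kept in a greenhouse. Compounds were applied postemergence to potted plants at the 1- to 4-leaf stage (2–18 cm).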

[5] = test system: giant foxtail (Setaria faberii); assay: Test A pre-/postemergence plant response
Procedure, shortened: (§2)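 Visually rated 0–100 injury (100 = complete control) versus untreated plants, ~10 days in greenhouse. Application pre- (soil spray, loam/sand) and postemergence (2–10 cm, 1–2 leaf stage), same timepoint.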

[6] = test system: large crabgrass (Digitaria sanguinalis); assay: Test A pre-/postemergence plant response
Procedure, shortened: as §2

[7] = test system: wheat (Triticum aestivum); assay: Test A pre-/postemergence plant response
Procedure, shortened: as §2

[8] = test system: barnyardgrass (Echinochloa crus-galli); assay: Test A pre-/postemergence plant response
Procedure, shortened: as §2

[9] = test system: pigweed (Amaranthus retroflexus); assay: Test A pre-/postemergence plant response
Procedure, shortened: as §2

[10] = test system: morningglory (Ipomoea spp.); assay: Test A pre-/postemergence plant response
Procedure, shortened: as §2

[11] = test system: velvetleaf (Abutilon theophrasti); assay: Test A pre-/postemergence plant response
Procedure, shortened: as §2

corn (Zea mays) = assay: Test A pre-/postemergence plant response
Procedure, shortened: as §2

[12] = 62 g ai/ha, scale of 0 to 100 where 0 is no effect and 100 is complete control
[13] = 125 g ai/ha, scale 0 to 100, 0 is no effect, 100 is complete control
[14] = Postemergence, 31 g ai/ha, 0 to 100 scale (0 no effect, 100 complete control)
[15] = Postemergence, 250 g ai/ha, scale 0 to 100 (0 no effect, 100 complete control), 13 to 15 days
[16] = Postemergence, 125 g ai/ha, 0 to 100 scale where 0 is no effect and 100 is complete control
[17] = Postemergence, 500 g ai/ha, visual injury, 0 to 100 scale (0 no effect, 100 complete control), approx. ten days
[18] = Preemergence, 125 g ai/ha, 0 to 100 scale, 0 = no effect, 100 = complete control
[19] = Preemergence, 500 g ai/ha, 0 to 100 scale, 0 = no effect, 100 = complete control
[20] = Postemergence, 500 g ai/ha, 0 to 100 scale, 0 = no effect, 100 = complete control, approx. ten days
[21] = Preemergence, 500 g ai/ha, visual injury, 0 to 100 scale (0 no effect, 100 complete control), approx. ten days
[22] = 31 g ai/ha, scale of 0 to 100 where 0 is no effect and 100 is complete control
[23] = Postemergence, 125 g ai/ha, visual injury, 0 to 100 scale (0 no effect, 100 complete control), approx. ten days

CCCCn1c(-c2cccc(F)c2)ncc(C(=O)C2=C(O)C3CCC(C3)C2=O)c1=O (stereo not drawn) [Compound 237]
0: Plant response rating, Rice (rice (Oryza sativa); [12]) | Plant response rating, Rice (rice (Oryza sativa); [13]) | Rice plant response rating (rice (Oryza sativa); 31 g ai/ha) | Sedge, Umbrella plant response rating ([1]; 31 g ai/ha) | Ducksalad plant response rating ([2]; 31 g ai/ha) | Plant response rating, Barnyardgrass [3, 12] | Plant response rating, Barnyardgrass [3, 13] | Barnyardgrass plant response rating ([3]; 31 g ai/ha) | Plant response rating, Wheat [7, 18] | Plant response rating, Corn (corn (Zea mays); [18])
20: Plant response rating, Wheat [7, 16] | Plant response rating, Barnyardgrass [8, 18]
70: Wheat plant response rating [7, 17]
40: Plant response rating, Barley ([4]; Postemergence, 125 g ai/ha, scale 0 (no effect) to 100 (complete control), 13 to 15 days) | Plant response rating, Barley [4, 15] | Plant response rating, Foxtail, Giant [5, 18] | Plant response rating, Crabgrass, Large [6, 18] | Plant response rating, Corn (corn (Zea mays); [16])
100: Plant response rating, Flood, Sedge, Umbrella [1] | Plant response rating, Flood, Ducksalad [2] | Foxtail, Giant plant response rating [5, 17] | Crabgrass, Large plant response rating [6, 17] | Plant response rating, Crabgrass, Large [6, 19] | Plant response rating, Barnyardgrass [8, 16] | Barnyardgrass plant response rating [8, 17] | Pigweed plant response rating [9, 17] | Plant response rating, Pigweed [9, 19] | Plant response rating, Morningglory [10, 16] | Morningglory plant response rating [10, 17] | Plant response rating, Velvetleaf [11, 16] | Velvetleaf plant response rating [11, 17] | Plant response rating, Velvetleaf [11, 19]
55: Plant response rating, Sedge, Umbrella [1, 13]
10: Plant response rating, Morningglory [10, 18]
90: Plant response rating, Ducksalad [2, 13] | Plant response rating, Foxtail, Giant [5, 16] | Plant response rating, Foxtail, Giant [5, 19] | Plant response rating, Barnyardgrass [8, 19] | Plant response rating, Pigweed [9, 16]
15: Plant response rating, Barley ([4]; Postemergence, 62 g ai/ha, scale 0 to 100 (0 no effect, 100 complete control))
65: Plant response rating, Ducksalad [2, 12]
45: Plant response rating, Flood, Rice (rice (Oryza sativa)) | Plant response rating, Sedge, Umbrella [1, 12]
30: Plant response rating, Flood, Barnyardgrass [3] | Plant response rating, Wheat [7, 19] | Plant response rating, Pigweed [9, 18]
50: Plant response rating, Corn (corn (Zea mays); [19])
80: Plant response rating, Crabgrass, Large [6, 16] | Plant response rating, Morningglory [10, 19] | Plant response rating, Velvetleaf [11, 18] | Corn plant response rating (corn (Zea mays); [17])
5: Plant response rating, Barley [4, 14]

Cc1ccc(F)cc1-n1c(-c2cccc(Cl)c2)ncc(C(=O)C2=C(O)CCCC2=O)c1=O [Compound 157]
15: Barley plant response rating (0 to 100 scale) ([4]; 62 g ai/ha, postemergence, 0 is no effect, 100 is complete control, 13 to 15 days)
100: Plant response rating, Foxtail, Giant [5, 20] | Plant response rating, Crabgrass, Large [6, 20] | Plant response rating, Barnyardgrass [8, 20] | Plant response rating, Pigweed [9, 20] | Plant response rating, Velvetleaf [11, 16] | Plant response rating, Velvetleaf [11, 20] | Plant response rating, Velvetleaf [11, 19]
40: Sedge, Umbrella plant response rating ([1]; 31 g ai/ha)
80: Plant response rating, Crabgrass, Large [6, 16]
10: Plant response rating, Foxtail, Giant [5, 18] | Plant response rating, Morningglory [10, 16]
20: Plant response rating, Crabgrass, Large [6, 18]
60: Plant response rating, Velvetleaf [11, 18]
70: Plant response rating, Ducksalad [2, 13] | Plant response rating, Crabgrass, Large [6, 21]
75: Plant response rating, Sedge, Umbrella [1, 13]
90: Plant response rating, Foxtail, Giant [5, 16] | Plant response rating, Barnyardgrass [8, 16] | Plant response rating, Pigweed [9, 16]
30: Plant response rating, Barley ([4]; Postemergence, 125 g ai/ha, scale 0 to 100 (0 no effect, 100 complete control)) | Plant response rating, Barley [4, 15] | Plant response rating, Morningglory [10, 20] | Plant response rating, Corn (corn (Zea mays); [20])
5: Plant response rating, Barley [4, 14]
50: Ducksalad plant response rating ([2]; 31 g ai/ha) | Plant response rating, Foxtail, Giant [5, 21] | Plant response rating, Barnyardgrass [8, 21] | Plant response rating, Pigweed [9, 21]
0: Plant response rating, Rice (rice (Oryza sativa); [13]) | Rice plant response rating (rice (Oryza sativa); 31 g ai/ha) | Plant response rating, Barnyardgrass [3, 13] | Barnyardgrass plant response rating ([3]; 31 g ai/ha) | Plant response rating, Wheat [7, 16] | Plant response rating, Wheat [7, 20] | Plant response rating, Wheat [7, 18] | Plant response rating, Wheat [7, 19] | Plant response rating, Barnyardgrass [8, 18] | Plant response rating, Pigweed [9, 18] | Plant response rating, Morningglory [10, 18] | Plant response rating, Morningglory [10, 21] | Plant response rating, Corn (corn (Zea mays); [16]) | Plant response rating, Corn (corn (Zea mays); [18]) | Plant response rating, Corn (corn (Zea mays); [21])

O=C1CCCC(O)=C1C(=O)c1cnc(-c2ccsc2)n(-c2ccccc2)c1=O [Compound 56]
30: Plant response rating, Sedge, Umbrella [1, 22] | Plant response rating, Barley ([4]; Postemergence, 125 g ai/ha, visual rating after 13 to 15 days, scale 0 (no effect) to 100 (complete control))
60: Plant response rating, Sedge, Umbrella [1, 13]
70: Plant response rating, Foxtail, Giant [5, 18]
90: Plant response rating, Foxtail, Giant [5, 20] | Plant response rating, Foxtail, Giant [5, 21] | Plant response rating, Crabgrass, Large [6, 20] | Plant response rating, Crabgrass, Large [6, 21] | Barnyardgrass plant response rating [8, 23] | Plant response rating, Barnyardgrass [8, 20] | Plant response rating, Barnyardgrass [8, 21] | Pigweed plant response rating [9, 23] | Plant response rating, Pigweed [9, 18] | Morningglory plant response rating [10, 23] | Plant response rating, Morningglory [10, 21]
50: Plant response rating, Flood, Ducksalad [2] | Plant response rating, Barnyardgrass [8, 18] | Plant response rating, Morningglory [10, 18] | Plant response rating, Corn (corn (Zea mays); [20])
100: Plant response rating, Pigweed [9, 20] | Plant response rating, Pigweed [9, 21] | Plant response rating, Morningglory [10, 20] | Velvetleaf plant response rating [11, 23] | Plant response rating, Velvetleaf [11, 20] | Plant response rating, Velvetleaf [11, 21]
15: Plant response rating, Rice (rice (Oryza sativa); [13]) | Plant response rating, Barnyardgrass [3, 12]
10: Plant response rating, Barnyardgrass [3, 22] | Plant response rating, Barley ([4]; Postemergence, 62 g ai/ha, scale 0 (no effect) to 100 (complete control), 13 to 15 days) | Corn plant response rating (corn (Zea mays); [23])
75: Plant response rating, Flood, Sedge, Umbrella [1]
20: Plant response rating, Flood, Rice (rice (Oryza sativa)) | Plant response rating, Ducksalad [2, 12] | Plant response rating, Barnyardgrass [3, 13]
0: Plant response rating, Rice (rice (Oryza sativa); [22]) | Plant response rating, Rice (rice (Oryza sativa); [12]) | Plant response rating, Ducksalad [2, 22] | Plant response rating, Barley ([4]; 31 g ai/ha, postemergence, scale 0 to 100, 0 is no effect, 100 is complete control) | Wheat plant response rating [7, 23] | Plant response rating, Wheat [7, 20] | Plant response rating, Wheat [7, 18] | Plant response rating, Wheat [7, 21] | Plant response rating, Corn (corn (Zea mays); [18]) | Plant response rating, Corn (corn (Zea mays); [21])
80: Foxtail, Giant plant response rating [5, 23] | Crabgrass, Large plant response rating [6, 23] | Plant response rating, Crabgrass, Large [6, 18] | Plant response rating, Velvetleaf [11, 18]
35: Plant response rating, Flood, Barnyardgrass [3]
40: Plant response rating, Sedge, Umbrella [1, 12] | Plant response rating, Ducksalad [2, 13]
